Assay results taken from patent US20180251431A1 (VERTEX PHARMACEUTICALS INCORPORATED, priority 2016, published 2018).
“Also recorded” adds a separate entry of the source.

Columns and labels:
ABCD1 KO mice = test: Thermal pain sensitivity (Plantar test, Hargreaves apparatus) in ABCD1 KO mice; format: in vivo, mouse; settings: male ABCD1 KO mice
Method: ABCD1 KO mice were used as a functional model of AMN. ABCD1 KO mice display a progressive loss of sensitivity to painful thermal stimulus similar to symptoms observed in AMN patients such as decreased sensitivity to touch. To determine the effect of Compound 87 on thermal sensitivity, Compound 87 was dosed PO QD either prophylactically or therapeutically to determine whether ABCD1 KO mice have different latency thresholds for the Plantar test (Hargreaves apparatus) response compared to wild-type (WT) mice. For the prophylactic study, mice were tested beginning at 10 months of age (before the loss of pain sensitivity) using doses of either 5 or 20 mg/kg. For the therapeutic study, mice were tested beginning at 18 months of age, after there was already a significant loss of pain sensitivity, using doses of either 32 or 64 mg/kg. […] The Plantar test (using a Hargreaves apparatus) was used and measured the latency to respond to a thermal stimulus using the following protocol. An individual mouse was placed into an individual compartment with a glass floor for about 10-15 minutes until they were settled. Each individual mouse was given three trials with an infrared source on each hind paw (alternated hind paws each time, and waited 5 minutes between each trial). […] When a response was observed (paw withdrawal), the key/button was released and the latency to respond was recorded (in seconds).

ABCD1 knockout (KO) mice = test: Reduction of blood C26:0 LPC in vivo in ABCD1 knockout mice (DBS, LC-MS/MS); set-up: species or system mouse
Method: Bioanalysis of LPC in Whole Blood and Brain Tissue:
A LC-MS/MS method of analyzing Lysophosphatidylcholine (LPC) in whole blood (dried blood spot card, DBS) and brain tissue samples was developed for measuring the abundance of saturated C16, C18, C20, C22, C24 and C26 LPC in DBS and brain samples. Whole blood was collected with Whatman DMPK-C DBS card at an approximate volume of 20 μL at each time point. Brain tissue was collected at the end point of the study. Samples were prepared and LC-MS/MS analysis was performed as described below.
Sample Preparation for LPC Bioanalysis:
For DBS bioanalysis, the DBS card was punched at 3 mm in diameter using a semi-automated DBS card puncher. To each punched spot 200 μL of pure methanol was added. The vial was vortexed at low speed for 20 minutes and centrifuged at 4000 rpm for 20 minutes. The clear supernatant was injected onto LC-MS/MS for analysis. For brain tissue bioanalysis, brain tissue was collected in a tared homogenization tube pre-filled with metal bead and weighted. To each sample vial two parts weight of methanol was added. The sample was homogenized using Precellys-24 at 5000 rpm for 20 seconds with one cycle. A 100 mg aliquot of homogenate was used for analysis. To each sample vial 400 μL of pure methanol was added. The vial was vortexed at low speed for 20 minutes and centrifuged at 4000 rpm for 20 minutes. The clear supernatant was injected onto LC-MS/MS for analysis.
The supernatant obtained from each sample was injected into a LC-MS/MS system (Agilent Technologies, Santa Clara, Calif. and Applied Biosystems, Framingham, Mass.) for analysis. All six LPC components (C16:0, C18:0, C20:0, C22:0, C24:0 and C26:0) were chromatographically separated using a Series 1290 binary pump and a Phenomenex (Torrance, Calif.) Kinetex C18 analytical column (2.1×100 mm, 5 μm particle diameter) with a 10-min gradient. A 5% acetonitrile in water solution was used as the aqueous phase and a 40% acetonitrile/60% methanol solution in 1% 2 Mol ammonium acetate was used as the organic mobile phase for achieving the chromatographic analysis. LPCs were detected by an AB Sciex API-6500 triple quadrupole MS with electrospray ionization in the mode of multiple reaction monitoring. Ions of Q1 were monitored at m/z of 496.6, 524.6, 552.6, 580.6, 608.6 and 636.6 for LPC 16:0, LPC 18:0, LPC 20:0, LPC 22:0, LPC 24:0 and LPC 26:0, respectively. A common Q3 ion m/z of 184.2 was used for all LPC analyses. C16:0 LPC levels were expressed as a concentration. All other LPC levels were expressed relative to C16. A one-way ANOVA with Dunnett's multiple comparisons test was performed to assess differences in LPC levels among the different groups. A value of P≤0.05 was considered statistically significant. All statistical analyses were conducted using Prism Software version 7.01 (GraphPad, La Jolla, Calif.).
Dosing in ABCD1 Knockout Mice:
To determine the effect of Compound 87 on blood VLCFA levels, Compound 87 was administered to ABCD1 knockout (KO) mice, a model that reproduces the C26:0 VLCFA accumulation observed in ALD patients. Specifically, Compound 87 was administered orally (PO) QD at 1, 8, or 16 mg/kg to ABCD1 KO mice (n=5 per group). DBS were collected on day 0 (pre-dosing), and daily through 14 days of dosing. DBS cards were stored at 4° C. in sealed ziplock bags with desiccant until they could be analyzed for LPC using the sample preparation and LC-MS/MS as described above. The vehicle used was 2% D-α-Tocopherol polyethylene glycol 1000 succinate (TPGS) and Compound 87 doses were prepared in 2% TPGS. […] Interperitoneal dosing, at 2 or 20 mg/kg (data not shown) or oral (PO) dosing at 1, 8, or 16 mg/kg (FIG. 2A) yielded similar results. A dose response was observed between 1 and 8 mg/kg. […] Error bars indicate standard deviation.
Daily Oral Dosing in ABCD1 Knockout Mice: […]

Structure (SMILES): O=C(Nc1ccn(-c2ccnc(F)c2)n1)C1(c2ccccc2F)CC1 [Compound 87, 1-(2-fluorophenyl)-N-[1-(2-fluoro-4-pyridyl)pyrazol-3-yl]cyclopropanecarboxamide]
- thermal pain sensitivity (response latency, Plantar test), prophylactic treatment (ABCD1 KO mice; 5 or 20 mg/kg PO QD, dosing initiated at 10 months of age, 6 month period): reduced the loss of thermal pain sensitivity
- thermal pain sensitivity (response latency, Plantar test), therapeutic treatment (ABCD1 KO mice; 32 or 64 mg/kg PO QD, dosing initiated at 18 months of age): reversed the loss of thermal pain sensitivity
- Plasma C26:0 LPC levels (ABCD1 knockout (KO) mice; ABCD1 KO mice, 1, 8, or 16 mg/kg PO QD for 14 days): dropped over the first 8 days before plateauing at near WT baseline levels
- reduction in C24:0 and C26:0 LPC levels compared to vehicle controls (ABCD1 knockout (KO) mice; ABCD1 KO mice, blood (DBS), 0.5 mg/kg PO QD for 28 days): 50%
- reduction in C26:0 LPC levels (dose response plateau) (ABCD1 knockout (KO) mice; ABCD1 KO mice, blood (DBS), plateau between the 4 mg/kg and 8 mg/kg doses, PO QD 28 days): approximately 75%
- time for LPC levels to return to baseline levels after compound discontinuation (ABCD1 knockout (KO) mice; adult female ABCD1 KO mice, 1 or 8 mg/kg PO QD for 14 days, then discontinued): approximately 1 week
- C26:0 LPC reducing effect after discontinuation of treatment (ABCD1 knockout (KO) mice; adult female ABCD1 KO mice, 1 or 8 mg/kg PO QD for 14 days, then discontinued, blood LPC followed another 2 weeks): reversible; also recorded: to about baseline level
- C26:0 LPC/C16:0 LPC levels in the blood (ABCD1 knockout (KO) mice; female ABCD1 KO mice, 1 and 10 mg/kg PO QD, 3 months of dosing): maintained at near WT levels
- reduction in C26:0 LPC levels in vivo (ABCD1 knockout (KO) mice; female ABCD1 KO mice, blood (DBS), 1 mg/kg PO QD for 3 months): ~65%
- reduction in C26:0 LPC levels in vivo (ABCD1 knockout (KO) mice; female ABCD1 KO mice, blood (DBS), 10 mg/kg PO QD for 3 months): ~70%
